Data published in patent US12697748B2, “Wood treatment compositions having antimicrobial properties” (Société en Commandite Prolam, priority 2022, dated 2026).

Tests used:
Type in all cases: cell-based
[1] = tested on: Escherichia coli ATCC 11229; assay: Qualitative antibacterial effect, inhibition zone after 48 h (Example 6); details: filter (diameter 10 mm)
Procedure: Cubic pieces of Maplewood of about 1 cm of thickness with a surface of about […] were provided. For Sample Y, the pieces were heated on a heating plate at 230° C. for about 45 seconds, and dipped into the tannin solution for about 25 seconds, again heated on the heating plate for about 45 seconds and dipped in paraffin at 65° C. for about 25 seconds. For Sample X, the pieces were heated on a heating plate for about 45 seconds, and dipped into the tannin solution for about 25 seconds.
After the above impregnation, manual vaporization of the Tanac Weibull™ solution was also conducted. Samples X and Y were sprayed five times each, with 24 h between each spray.
The growth inhibition for Escherichia coli ATCC 11229 was determined. A culture of the microorganism was spread at the surface of Tryptic Soy agar (TSA) nutrient gel. Treated wood cubic pieces of about 3 mm of thickness with a surface of about 1 cm^2, as prepared above. The wooden pieces of Sample X (duplicated) were then rehumidified with water, Sample Y was not rehumidified and two Samples Z (no treated) were used: as is and rehumidified. Each piece was deposited on the nutrient gel, treated face down, contacting the gel. […] After the incubation period, the growth inhibition zone was measured and the incubation pursued at 48 h to evaluate the growth under the wooden cubes after the prolonged incubation.

[2] = tested on: Staphylococcus aureus ATCC 6538; assay: Growth inhibition zone of treated wood pieces on TSA nutrient gel; details: 24 h at 36° C.
Procedure: (§1) Cubic pieces of Maplewood of about 3 mm of thickness with a surface of about 1 cm^2 were provided. For Sample A, the pieces were heated on a heating plate at 230° C. for about 45 seconds, and dipped into the tannin solution for about 25 seconds, again heated on the heating plate for about 45 seconds and dipped in paraffin at 65° C. for about 25 seconds. For Sample B, the pieces were heated on a heating plate for about 45 seconds, and dipped into the tannin solution for about 25 seconds. The impregnation rate was calculated to be around 645 g/m^2 (60 g/pi^2).
(§2) The growth inhibition for Escherichia coli ATCC 11229 and Staphylococcus aureus ATCC 6538 was first determined. A culture of each microorganism was spread at the surface of Tryptic Soy agar (TSA) nutrient gel. Treated wood was cut into cubic pieces of about 3 mm of thickness with a surface of about 1 cm^2, as prepared above. Each piece was deposited on the nutrient gel, treated face down, contacting the gel, and using two pieces for each microorganism. The petri dishes containing the nutrient gel were closed and incubated for 24 h at 36° C. Sterile filters moistened with demineralized water and with a mercury chloride 0.018 mol/L solution were used and tested as negative and positive controls, respectively. After the incubation period, the growth inhibition zone was measured, and the incubation pursued for three (3) additional days to evaluate the growth under the wooden cubes after the prolonged incubation.
(§3) Cubic pieces of Maplewood of about 1 cm of thickness with a surface of about […] were provided. For Samples 1 and 2, the pieces were heated on a heating plate at 230° C. for about 45 seconds, and dipped into the tannin solution for about 25 seconds, again heated on the heating plate for about 45 seconds and dipped in paraffin at 65° C. for about 25 seconds. For Samples 4 and 5, the pieces were heated on a heating plate for about 45 seconds, and dipped into the tannin solution for about 25 seconds. The impregnation rate was calculated to be around 301 g/m^2 (28 g/pi^2). […]

[3] = tested on: Escherichia coli ATCC 11229; assay: as above; details: 24 h at 36° C., listed as Negative control
Procedure: as §1, §2, §3

SMILES: [Cl][Hg][Cl] [Positive control, mercury chloride]
- Diameter of the inhibition zone after 48 h [1]: 22 mm
- Diameter of the inhibition zone [2]: 32 mm
- Diameter of the inhibition zone ([2]; listed as Negative control): 25 mm
- Diameter of the inhibition zone [3]: 23 mm
